Patent publication US9775902B2, “Compounds and methods for treatment of stroke” (FIBROGEN, INC, priority 2006, dated 2017)
Where two headings read alike, the source gives them in different places.

Tests used:
[1] = tested on: erythropoietin (EPO); assay: EPO expression in Hep3B cells (QUANTIKINE immunoassay of conditioned media); type: cell-based, Human; details: for Fold Increase Over Control: EPO, vs 1% DMSO control; for EPO: conditioned media after overnight incubation with compound
Procedure, shortened: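 Confluent Hep3B cells were switched to OPTI-MEM for about 24 h (20% O2, 5% CO2, 37 °C), then treated overnight with compound or 1% DMSO vehicle. EPO secreted into the conditioned medium was measured by QUANTIKINE immunoassay.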

[2] = tested on: erythropoietin (EPO); assay: EPO expression in Kelly neuroblastoma cells; type: cell-based; details: for EPO: conditioned media after overnight incubation
Procedure, shortened: (§1)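 Kelly neuroblastoma cells treated overnight with compound, 1% DMSO as negative control. EPO and VEGF secreted into conditioned media measured by QUANTIKINE immunoassay.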

[3] = tested on: vascular endothelial growth factor (VEGF); assay: VEGF expression in Kelly neuroblastoma cells; type: cell-based; details: for VEGF: conditioned media after overnight incubation
Procedure, shortened: as §1

[4] = tested on: erythropoietin; assay: Plasma EPO in mice after intravenous injection; type: in vivo, Swiss Webster mice; details: mouse plasma, 20 mg/kg i.v., four hours after injection; for fold induction at 20 mg/kg: iv, 4 h, read-out: EPO Fold Increase; for EPO: mouse EPO ELISA kit (**)
Procedure, shortened: (§2)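 Male Swiss Webster mice (29-34 g) received 20 mg/kg compound or vehicle by tail-vein injection in 5% dextrose with equimolar NaOH or meglumine. Plasma was collected 4 h later, and EPO and VEGF were measured by ELISA.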

[5] = tested on: VEGF; assay: Plasma VEGF in mice after intravenous injection; type: in vivo, Swiss Webster mice; details: mouse plasma, 20 mg/kg i.v., four hours after injection; for fold induction at 20 mg/kg: iv, 4 h, read-out: VEGF Fold Increase
Procedure, shortened: as §2

[6] = tested on: C57BL/6 mice, permanent occlusion of the MCA; assay: Permanent middle cerebral artery occlusion (pMCAO) in C57BL/6 mice: infarct volume and edema; type: in vivo; details: for Percent Reduction in Edema / inhibition in vivo at up to 20 mg/kg: C57BL/6 mice pMCAO, 20-60 mg/kg i.v., compound given 0 hr; for inhibition in vivo at up to 20 mg/kg / inhibition in vivo at 60 mg/kg: Mus musculus, iv, read-out: Percent Reduction in Infarct Volume; for inhibition in vivo at up to 20 mg/kg: 24 h, 24 hours after MCA occlusion; for inhibition in vivo at 60 mg/kg: C57BL/6 pMCAO
Procedure, shortened: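 Male mice (25-35 g) under avertin anaesthesia had the distal MCA coagulated through a craniotomy; compound given as single i.v. bolus (20-60 mg/kg, 6 ml/kg in 5% dextrose with equimolar meglumine or NaOH) before or up to 8 h after occlusion.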

| Structure (SMILES) | Fold Increase Over Control [1] | EPO [1] | EPO Fold Increase [2] | EPO [2] | VEGF Fold Increase [3] | VEGF [3] | fold induction at 20 mg/kg [4] | EPO [4] | fold induction at 20 mg/kg [5] | VEGF [5] | Percent Reduction in Edema [6] | inhibition in vivo at up to 20 mg/kg [6] | inhibition in vivo at 60 mg/kg ([6]; 0 h, 60 mg/kg single i.v. bolus (Meglumine vehicle), 0 hr after MCA occlusion) | inhibition in vivo at 60 mg/kg ([6]; 0 h, 60 mg/kg single i.v. bolus (NaOH vehicle), 0 hr after MCA occlusion) | inhibition in vivo at 60 mg/kg ([6]; 1 h, 60 mg/kg single i.v. bolus (NaOH vehicle), 1 hr after MCA occlusion) | inhibition in vivo at 60 mg/kg ([6]; 3 h, 60 mg/kg single i.v. bolus (NaOH vehicle), 3 hr after MCA occlusion) | inhibition in vivo at 60 mg/kg ([6]; 4 h, 60 mg/kg single i.v. bolus (Meglumine vehicle), 4 hr after MCA occlusion) | inhibition in vivo at 60 mg/kg ([6]; 5 h, 60 mg/kg single i.v. bolus (NaOH vehicle), 5 hr after MCA occlusion) | inhibition in vivo at 60 mg/kg ([6]; 6 h, 60 mg/kg single i.v. bolus (Meglumine vehicle), 6 hr after MCA occlusion) | inhibition in vivo at 60 mg/kg ([6]; 8 h, 60 mg/kg single i.v. bolus (Meglumine vehicle), 8 hr after MCA occlusion) |
| --- | --- | --- | --- | --- | --- | --- | --- | --- | --- | --- | --- | --- | --- | --- | --- | --- | --- | --- | --- | --- |
| N#Cc1nc(C(=O)NCC(=O)O)c(O)c2c(Oc3ccc(F)cc3)cccc12 [Compound AS, {[1-Cyano-5-(4-fluoro-phenoxy)-4-hydroxy-isoquinoline-3-carbonyl]-amino}-acetic acid] | 10.7 | 40.5 mIU/ml | 11.72 | 221.5 mIU/ml | 5.6 | 8197 pg/mL | 102 | 49305 pg/mL | 0.57 | 20 pg/mL | 54% | 50% |  |  |  |  |  |  |  |  |
| Cc1cccc(C)c1Oc1ccc2c(C#N)nc(C(=O)NCC(=O)O)c(O)c2c1 [Compound AL, {[1-Cyano-6-(2,6-dimethyl-phenoxy)-4-hydroxy-isoquinoline-3-carbonyl]-amino}-acetic acid] | 13.9 | 74.8 mIU/ml | 11.31 | 213.8 mIU/ml | 3.8 | 5499 pg/mL | 188 | 22514 pg/mL | 2.06 | 130 pg/mL | 73% | 43% |  |  |  |  |  |  |  |  |
| COc1ccc(Oc2ccc3c(O)c(C(=O)NCC(=O)O)ncc3c2)cc1 [Compound F, {[4-Hydroxy-7-(4-methoxy-phenoxy)-isoquinoline-3-carbonyl]-amino}-acetic acid] | 3.0 | 369.4 mIU/ml | 10.5 | 65 mIU/ml | 16.2 | 2564.9 pg/mL | 254 | 2283 pg/mL | 2.21 | 64 pg/mL | 47% | 68% | 43% | 50% | 62% | 53% | 36% | 55% | 15% | 8% |
